Measurements as given in US4973554A, “Affinity process for trypsin purification and stabilization” (National Research Council of Canada, priority 1987, dated 1990).
One block for each molecule: values may come before it.

How the values were obtained:
trypsin [1] = molecular target: T1, trypsin (Bos taurus, UniProt P00760); assay: Elution of bound trypsin from affinity polymer during ultrafiltration; settings: for elution of bound trypsin from polymer 5:1 by eluting solution: 500 mM arginine with 10 mM Ca++ in Tris pH 8, 2M KCl with 10 mM Ca++ in pH 8 Tris, 10 mM m-aminobenzamidine, data not shown
T1 sequence (P00760 24-246): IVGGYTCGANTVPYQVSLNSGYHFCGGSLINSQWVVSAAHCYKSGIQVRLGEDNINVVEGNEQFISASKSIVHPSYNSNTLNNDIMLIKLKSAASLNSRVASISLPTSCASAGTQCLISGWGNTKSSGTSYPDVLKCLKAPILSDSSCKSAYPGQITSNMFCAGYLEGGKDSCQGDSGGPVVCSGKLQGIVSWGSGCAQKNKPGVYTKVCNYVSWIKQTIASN
Description: Investigation was next conducted on the eluting characteristics of four agents (FIG. 1).
Tests were also performed to determine whether the elution of trypsin with arginine was affected by the acrylamide:monomer ratio and the polymer concentration.

trypsin [2] = molecular target: T1, trypsin; assay: Trypsin inhibition kinetics, substrate Nα-benzoyl-L-arginine p-nitroanilide; type: biochemical
trypsin [3] = molecular target: T1, trypsin; settings: with respect to substrate benzoyl-L-arginine p-nitroanilide; literature; cited from earlier work
chymotrypsin = settings: Adamski-Medda et al, 1981; cited from earlier work
trypsin [4] = settings: Adamski-Medda et al, 1981; cited from earlier work
trypsin [5] = molecular target: T1, trypsin; assay: Trypsin storage stability with/without affinity polymer (trypsin activity); type: physicochemical; settings: without affinity polymer
Description: Trypsin can be adsorbed by the affinity polymer and stored until this enzyme is required for use or further processing. […] Without the affinity polymer, the trypsin retained only half of its activity at 25° C. after three days even though this solution was stabilized by adding an appropriate amount of calcium. It was further shown that at 4° C. without the affinity polymer trypsin retained approximately 70% of its original activity after 10 days.

elution of bound trypsin from polymer 5:1 by eluting solution (trypsin [1]): eluted easily
Molecule: [Cl-].[K+] [KCl]

Molecule: N=C(N)NCCC[C@H](N)C(=O)O [arginine, L-arginine]
elution of bound trypsin from polymer 5:1 by eluting solution (trypsin [1]): eluted easily
eluting characteristics of agents (FIG. 1) (trypsin [1]; polymer 5:1 at 0.75% containing 300 mg trypsin, four agents compared): most effective eluting agent
Ki (trypsin [2]): 41 ± 3 mM
mechanism of trypsin inhibition (trypsin [2]; with respect to substrate Nα-benzoyl-L-arginine p-nitroanilide, data not shown): competitive inhibitor

elution of bound trypsin from polymer 5:1 by eluting solution (trypsin [1]): eluted easily
inhibitor strength among ortho, meta, para aminobenzamidine (trypsin [2]; position of amino group compared): strongest inhibitor
Molecule: N=C(N)c1cccc(N)c1 [m-aminobenzamidine]
trypsin inhibition kinetics (mechanism) (trypsin [3]): competitive manner

Molecule: dextran-p-aminobenzamidine
chymotrypsin in the filtrate in presence of macroligand (chymotrypsin): 65%
trypsin in the filtrate in presence of macroligand (trypsin [4]): 24%

B1: trypsin (protein, UniProt P00760 24-246, looked up)
Serine protease 1: IVGGYTCGANTVPYQVSLNSGYHFCGGSLINSQWVVSAAHCYKSGIQVRLGEDNINVVEGNEQFISASKSIVHPSYNSNTLNNDIMLIKLKSAASLNSRVASISLPTSCASAGTQCLISGWGNTKSSGTSYPDVLKCLKAPILSDSSCKSAYPGQITSNMFCAGYLEGGKDSCQGDSGGPVVCSGKLQGIVSWGSGCAQKNKPGVYTKVCNYVSWIKQTIASN
original trypsin activity retained (trypsin [5]; 4° C., 10 days): approximately 70%
trypsin activity retained (trypsin [5]; 25° C., three days, calcium added): half
